# Experimental data: US11440898B2, “Isoquinoline compounds, methods for their preparation, and therapeutic uses thereof in conditions associated with the alteration of the activity of beta galactosidase” (Minoryx Therapeutics S.L., priority 2016, dated 2022)
# Biological target: T1, mutated beta-galactosidase (p.R60H canine GLB1) in GM11473 fibroblasts (Canis lupus familiaris, UniProt Q9TRY9, R60H)
# T1 construct: host or cells: GM11473 canine GM1 gangliosidosis fibroblasts
# T1 sequence (Q9TRY9 30-668 R60H): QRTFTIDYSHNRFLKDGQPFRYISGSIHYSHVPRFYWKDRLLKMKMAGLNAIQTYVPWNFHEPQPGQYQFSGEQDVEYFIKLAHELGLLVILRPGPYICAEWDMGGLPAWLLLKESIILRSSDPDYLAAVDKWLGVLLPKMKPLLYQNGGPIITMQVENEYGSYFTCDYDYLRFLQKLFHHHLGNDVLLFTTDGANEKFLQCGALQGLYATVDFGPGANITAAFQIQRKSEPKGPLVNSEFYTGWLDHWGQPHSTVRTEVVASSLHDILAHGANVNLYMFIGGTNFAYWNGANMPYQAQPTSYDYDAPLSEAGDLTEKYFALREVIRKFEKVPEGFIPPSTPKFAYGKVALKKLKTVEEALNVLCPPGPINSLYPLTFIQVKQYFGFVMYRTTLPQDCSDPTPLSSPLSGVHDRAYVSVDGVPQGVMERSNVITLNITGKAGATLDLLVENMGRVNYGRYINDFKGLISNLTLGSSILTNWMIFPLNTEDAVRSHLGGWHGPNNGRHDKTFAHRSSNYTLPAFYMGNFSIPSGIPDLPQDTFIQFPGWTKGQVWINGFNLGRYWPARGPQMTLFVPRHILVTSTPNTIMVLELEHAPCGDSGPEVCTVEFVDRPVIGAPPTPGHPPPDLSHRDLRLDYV
# Assay: Enhancement of β-galactosidase activity measured in GM1 fibroblasts (GM11473), 4-MU-β-D-galactopyranoside substrate
# Type: cell-based
# Parameters: key: Increase in comparison with non-treated of >2.5 fold is shown as A; Increase in comparison with non-treated of >1.7-2.5 fold is shown as B; Increase in comparison with non-treated of 1.2-1.7 fold is shown as C; D means that no increase compared with non-treated cells was detected in this method
# Settings: increase in β-galactosidase enzyme activity vs non-treated cells, concentrations between 6 and 50 μM, 4 days incubation
# Protocol: The capacity of the Compounds of the Disclosure to enhance mutated beta-galactosidase activity levels in GM1 fibroblasts was assayed as follows.
# Fibroblasts homozygous for a GM1 gangliosidosis missense mutation (GM11473) (canine fibroblasts homozygous for the GM1 gangliosidosis missense mutation p.R60H equivalent to human p.R59H mutation) were purchased from Coriell Institute for Medical Research (Camden, N.J., USA).
# Fibroblasts were seeded at 4×10^4 cells per well in 12-well cell culture plates in Dulbecco's Modified Eagle's Media (DMEM) supplemented with 10% of fetal bovine serum (FBS), 1% penicillin/streptomycin (P/S) (Thermo Fisher Scientific, Waltham, Mass., USA) and incubated at 37° C., 5% CO2 overnight for cell attachment. Subsequently, cells were incubated in the absence or presence of the compounds at the desired concentration for 4 days. After incubation, cells were washed twice with phosphate-buffered saline (“PBS”) and detached using Trypsin-EDTA solution (Sigma Aldrich, St. Louis, Mo., USA) to prepare cell pellets. The pellets were stored at −80° C. until activity assays were performed.
# β-Galactosidase activity in cell lysates was measured by using 4-Methylumbelliferyl-β-D-galactopyranoside substrate (Sigma Aldrich, St. Louis, Mo., USA). Briefly, lysates were resuspended in 200 μL of 0.9% NaCl containing 0.01% triton X-100 lysis buffer to promote membrane disruption. The cell suspension was sonicated and centrifuged to remove insoluble materials. Then, lysates were mixed with 4-MU-β-D-galactopyranoside in 100 mM citrate buffer (pH=4) and 100 mM NaCl for 60 min at 37° C. The reaction was terminated by adding 100 mM glycine-NaOH buffer (pH=10.7). The liberated 4-MU was measured on a GloMax Discover plate reader (Promega, Madison, Wis., USA) with excitation at 340 nm and emission at 460 nm. Protein quantification was determined using Pierce BCA Protein Assay Kit (Thermo Fisher Scientific, Waltham, Mass., USA). Measurements were interpolated in a 4-MU standard curve and normalized by protein quantity. Enzyme activities were expressed in treated cells as X-fold increase in comparison with non-treated cells (X=1 represents no enhancement).
# The capacity of the Compounds of the Disclosure to produce an increase in β-galactosidase enzyme activity in canine GM1 fibroblasts bearing p.R60H canine GLB1 mutation at concentrations between 6 and 50 μM is denoted as follows: • Increase in comparison with non-treated of >2.5 fold is shown as A. • Increase in comparison with non-treated of >1.7-2.5 fold is shown as B. • Increase in comparison with non-treated of 1.2-1.7 fold is shown as C. • D means that no increase compared with non-treated cells was detected in this method. • ND means “not determined.”
row,SMILES,Activity in GM11473 fibroblasts
1,"O=C(NCc1ccc2c(c1)CCCO2)c1cc(Nc2nccc3ccc(Cl)cc23)ccn1 [Example 19, 4-((7-Chloroisoquinolin-1-yl)amino)-N-(chroman-6-ylmethyl)picolinamide]",C (Increase in comparison with non-treated of 1.2-1.7 fold is shown as C)
2,"N#Cc1ccc2ccnc(Nc3ccc(C(=O)NC4CCc5ccccc5C4)nc3)c2c1 (stereo not shown) [Example 48, 5-((7-Cyanoisoquinolin-1-yl)amino)-N-(1,2,3,4-tetrahydronaphthalen-2-yl)picolinamide]",A (Increase in comparison with non-treated of >2.5 fold is shown as A)
3,"Cn1nnc2c(NS(=O)(=O)c3cccc(Nc4nccc5ccc(Cl)cc45)c3)cccc21 [Example 67, 3-((7-Chloroisoquinolin-1-yl)amino)-N-(1-methyl-1H-benzo[d][1,2,3]triazol-4-yl)benzenesulfonamide]",C (Increase in comparison with non-treated of 1.2-1.7 fold is shown as C)
4,"O=C(NCc1ccc2c(c1)OCO2)c1ccc(Nc2nccc3ccc(Cl)cc23)cn1 [Example 37, N-(benzo[d][1,3]dioxol-5-ylmethyl)-5-((7-chloroisoquinolin-1-yl)amino)picolinamide]",D
5,"COc1ccc2ccnc(Nc3ccnc(C(=O)NCc4ccc5c(c4)OCCO5)c3)c2c1 [Example 25, N-((2,3-dihydrobenzo[b][1,4]dioxin-6-yl)methyl)-4-((7-methoxyisoquinolin-1-yl)amino)picolinamide]",C (Increase in comparison with non-treated of 1.2-1.7 fold is shown as C)
6,"O=S(=O)(NCc1ccc2nsnc2c1)c1cccc(Nc2nccc3ccc(Cl)cc23)c1 [Example 74, N-(benzo[c][1,2,5]thiadiazol-5-ylmethyl)-3-((7-chloroisoquinolin-1-yl)amino)benzenesulfonamide]",D
7,"COc1cccc(CNC(=O)c2ccc(Nc3nccc4ccc(Cl)cc34)cn2)c1 [Example 31, 5-((7-Chloroisoquinolin-1-yl)amino)-N-(3-methoxybenzyl)picolinamide]",B (Increase in comparison with non-treated of >1.7-2.5 fold is shown as B)
8,"O=C(NCc1ccccc1)c1ccc(Nc2nccc3ccc(Cl)cc23)nc1 [Example 55, N-benzyl-6-((7-chloroisoquinolin-1-yl)amino)nicotinamide]",C (Increase in comparison with non-treated of 1.2-1.7 fold is shown as C)
9,"O=C(NCc1ccc2c(c1)CCO2)c1cc(Nc2nccc3ccc(Cl)cc23)ccn1 [Example 16, 4-((7-Chloroisoquinolin-1-yl)amino)-N-((2,3-dihydrobenzofuran-5-yl)methyl)picolinamide]",C (Increase in comparison with non-treated of 1.2-1.7 fold is shown as C)
10,"COc1ccc(CNC(=O)c2ccc(Nc3nccc4ccc(Cl)cc34)nc2)cc1 [Example 56, 6-((7-Chloroisoquinolin-1-yl)amino)-N-(4-methoxybenzyl)nicotinamide]",D
11,"Cn1nnc2cc(NC(=O)c3cccc(Nc4nccc5ccc(Cl)cc45)c3)ccc21 [Example 1, 3-((7-Chloroisoquinolin-1-yl)amino)-N-(1-methyl-1H-benzo[d][1,2,3]triazol-5-yl)benzamide]",C (Increase in comparison with non-treated of 1.2-1.7 fold is shown as C)
12,"O=S(=O)(NCC(c1ccccn1)N1CCOCC1)c1cccc(Nc2nccc3ccc(Cl)cc23)c1 (stereo not shown) [Example 66, 3-((7-Chloroisoquinolin-1-yl)amino)-N-(2-morpholino-2-(pyridin-2-yl)ethyl)benzenesulfonamide]",C (Increase in comparison with non-treated of 1.2-1.7 fold is shown as C)
13,"O=S(=O)(NC1CCc2ccccc2C1)c1cccc(Nc2nccc3ccc(Cl)cc23)c1 (stereo not shown) [Example 70, 3-((7-Chloroisoquinolin-1-yl)amino)-N-(1,2,3,4-tetrahydronaphthalen-2-yl)benzenesulfonamide]",C (Increase in comparison with non-treated of 1.2-1.7 fold is shown as C)
14,"Cn1nnc2c(NS(=O)(=O)c3ccc(Nc4nccc5ccc(Cl)cc45)cc3)cccc21 [Example 73, 4-((7-Chloroisoquinolin-1-yl)amino)-N-(1-methyl-1H-benzo[d][1,2,3]triazol-4-yl)benzenesulfonamide]",D
15,"N#Cc1ccc2ccnc(Nc3ccc(C(=O)NCc4ccc5nsnc5c4)nc3)c2c1 [Example 50, N-(benzo[c][1,2,5]thiadiazol-5-ylmethyl)-5-((7-cyanoisoquinolin-1-yl)amino)picolinamide]",C (Increase in comparison with non-treated of 1.2-1.7 fold is shown as C)
16,"O=C(NCC(c1cccnc1)N1CCCC1)c1ccc(Nc2nccc3ccc(Cl)cc23)cc1 (stereo not shown) [Example 6, 4-((7-Chloroisoquinolin-1-yl)amino)-N-(2-(pyridin-3-yl)-2-(pyrrolidin-1-yl)ethyl)benzamide]",D
17,"COc1ccc(CNC(=O)c2ccc(Nc3nccc4ccc(Cl)cc34)cn2)cc1OC [Example 32, 5-((7-Chloroisoquinolin-1-yl)amino)-N-(3,4-dimethoxybenzyl)picolinamide]",C (Increase in comparison with non-treated of 1.2-1.7 fold is shown as C)
18,"O=C(NCc1ccc2c(c1)OCCO2)c1ccc(Nc2nccc3ccc(Cl)cc23)cc1 [Example 5, 4-((7-Chloroisoquinolin-1-yl)amino)-N-((2,3-dihydrobenzo[b][1,4]dioxin-6-yl)methyl)benzamide]",B (Increase in comparison with non-treated of >1.7-2.5 fold is shown as B)
19,"O=C(NCC1CCc2ccccc2C1)c1ccc(Nc2nccc3ccc(Cl)cc23)cn1 (stereo not shown) [Example 41, 5-((7-Chloroisoquinolin-1-yl)amino)-N-((1,2,3,4-tetrahydronaphthalen-2-yl)methyl)picolinamide]",B (Increase in comparison with non-treated of >1.7-2.5 fold is shown as B)
20,"O=C(NCc1ccc2c(c1)OCO2)c1cc(Nc2nccc3ccc(Cl)cc23)ccn1 [Example 17, N-(benzo[d][1,3]dioxol-5-ylmethyl)-4-((7-chloroisoquinolin-1-yl)amino)picolinamide]",B (Increase in comparison with non-treated of >1.7-2.5 fold is shown as B)
21,"O=S(=O)(NCC(c1cccnc1)N1CCCC1)c1cccc(Nc2nccc3ccc(Cl)cc23)c1 (stereo not shown) [Example 65, 3-((7-Chloroisoquinolin-1-yl)amino)-N-(2-(pyridin-3-yl)-2-(pyrrolidin-1-yl)ethyl)benzenesulfonamide]",C (Increase in comparison with non-treated of 1.2-1.7 fold is shown as C)
22,"O=C(NCCc1ccc2c(c1)OCCO2)c1ccc(Nc2nccc3ccc(Cl)cc23)cn1 [Example 38, 5-((7-Chloroisoquinolin-1-yl)amino)-N-(2-(2,3-dihydrobenzo[b][1,4]dioxin-6-yl)ethyl)picolinamide]",D
